Data set [1] has as its system cyclin K, CDK12, RNA polymerase II phospho-ser2, MYC, MCL-1 protein levels. As to the kind of experiment: Immunoblot analysis of protein levels. The conditions noted are these: for RNA polymerase II phospho-ser2 level (immunoblot): OCI-AML5, 5 μM for 5 h. The class given is cell-based, H. sapiens. As for the experimental part:
Total proteins were extracted using RIPA buffer (20 mM Tris-HCl pH 7.4, 150 mM NaCl, 5 mM MgCl2, 5 mM EGTA, 60 mM β-glycerophosphate, 0.1% NP40, 0.1% Triton X-114, 1 mM DTT) supplemented with protease inhibitors (cOmplete, EDTA-free protease inhibitor tablets), and quantified by the bicinchoninic acid (BCA) method using a BSA standard curve. Proteins were resolved by SDS-PAGE, transferred onto PVDF membrane, blocked with 5% milk and probed with primary (overnight, 4 °C) and secondary (1 h, room temperature) antibodies.
Background: Immunoblotting shows a protein as a band on a membrane.

The target of data set [2] is T1, CDK12-DDB1 interaction (Homo sapiens, UniProt Q16531+Q9NYV4).
T1 construct: The kinase domain of CDK12 was fused to the Large BiT (LgBiT); expressed in transfected cells; host or cells: HEK293
Description: NanoLuc Binary Technology CDK12-DDB1 interaction in HEK293 cells. The class given is cell-based, H. sapiens. As to conditions: HEK293, monitored over 1 h. The source says: Using the NanoBiT PPI MCS starter system vectors, we generated fusion proteins of CDK12 and DDB1 to monitor their interaction in living cells through a structural complementation reporter system for the NanoLuc. The kinase domain of CDK12 was fused to the Large BiT (LgBiT) while DDB1 was fused to the Small Bit (SmBiT), both in N-terminal. The primers used to clone CDK12 and DDB1 in NanoBit vectors by Gibson assembly are as follows: N-LgBiT-CDK12KD-F: […]; N-LgBiT-CDK12KD-STOP-R: […]; N-SmBiT-DDB1-F: […]; N-SmBiT-DDB1-GA-R: […].
Both CDK12-LgBiT and DDB1-SmBiT generated plasmids were then transfected in HEK293 cells using JetPrime transfection reagent according to the manufacturer’s instructions and plated 24 h later in white 384-well plate (20,000 cells /well). After 4 h, 5× D-blue substrate was added to each well, incubated for 5 min at obscurity, prior to addition of compounds of interest at increasing concentrations. Luminescence was monitored for 1 h using the Neo Synergy BioTek plate reader.

Data set [3] concerns tumor growth. Details: method as in Dieter et al. (PMID34289372). As to conditions: orally in mice, 20 mg/kg, 5 days per week; ref Dieter et al. (PMID34289372); cited from earlier work.
Data set [4] addresses T2, OCI-AML5 total protein extracts (cyclin K, CDKs, DDB1) (Homo sapiens, UniProt Q86UQ4).
T2 construct: endogenous in cells; host or cells: OCI-AML5 total protein extract
As to the kind of experiment: Pull-down with immobilized probes and quantitative mass spectrometry. The class given is binding, H. sapiens. The conditions noted are these: protein ABCA13 (Q86UQ4). The method, then:
(§1) Probe compounds were immobilized through their terminal amine on NHS-sepharose beads as previously described (Médard et al, [2015]). The prepared beads were then washed in PBS and equilibrated in Triton X-100 buffer. For each replicate, 1–2 mg of total proteins (2 mg/ml) were incubated end-over-end with 25 μl of beads overnight at 4 °C in low protein binding microtubes (Sarstedt). The samples were then washed twice in Triton X-100 buffer, transferred to new microtubes and further washed six times in PBS including another microtube transfer at the last wash. Beads pellets were resuspended in 50 mM ammonium bicarbonate and subjected to reduction, alkylation and tryptic digest as described above. Peptides were separated on an home-made reversed-phase column (150-μm i.d. by 200 mm) with a 56-min gradient from 10 to 30% ACN-0.2% FA and a 600-nl/min flow rate on a Easy nLC-1200 connected to a Exploris 480 (ThermoFisher Scientific, San Jose, CA). Each full MS spectrum acquired at a resolution of 120,000 was followed by tandem-MS (MS-MS) spectra acquisition on the most abundant multiply charged precursor ions for 3 s. Tandem-MS experiments were performed using higher energy collision dissociation (HCD) at a collision energy of 34%. The data were processed using PEAKS X Pro (Bioinformatics Solutions, Waterloo, ON) and a Uniprot human database (20366 entries). Mass tolerances on precursor and fragment ions were 10 ppm and 0.01 Da, respectively. Fixed modification was carbamidomethyl (C). Variable selected posttranslational modifications were acetylation (N-ter), oxidation (M), deamidation (NQ), phosphorylation (STY). The data were visualized with Scaffold 5.0 (protein threshold, 99%, with at least 2 peptides identified and a false-discovery rate [FDR] of 1% for peptides).
(§2) Differential Enrichment analysis of Proteomics data (DEP) package (Zhang et al, [2018]) in R was used to analyze the data (excluding proteins identified based on a single peptide), including data filtering, normalization, imputation of missing values and statistical testing of differentially expressed proteins.

Data set [5] deals with T3, OCI-AML5 total protein extracts (cyclin K, CDKs, DDB1) (Homo sapiens, UniProt P50750).
T3 construct: endogenous in cells; host or cells: OCI-AML5 total protein extract
The description is as above. The class given is binding, H. sapiens. The conditions noted are these: OCI-AML5 total protein extracts; DEP analysis. As for the experimental part: as §1, §2

Data set [6] concerns the target T4, OCI-AML5 total protein extracts (cyclin K, CDKs, DDB1) (Homo sapiens, UniProt Q96IU4).
T4 construct: endogenous in cells; host or cells: OCI-AML5 total protein extract
T4 sequence (Q96IU4 1-210): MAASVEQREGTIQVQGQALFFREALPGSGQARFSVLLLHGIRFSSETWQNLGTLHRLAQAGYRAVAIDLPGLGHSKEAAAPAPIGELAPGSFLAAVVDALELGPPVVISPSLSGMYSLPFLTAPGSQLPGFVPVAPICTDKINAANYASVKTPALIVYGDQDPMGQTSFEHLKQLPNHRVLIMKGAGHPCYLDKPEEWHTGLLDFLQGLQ
The data set is described as above. The data set is classed as binding, H. sapiens. The conditions noted are these: protein ABHD14B (Q96IU4). The method, then:
as §1, §2

Data set [7] has as its target T5, OCI-AML5 total protein extracts (cyclin K, CDKs, DDB1) (Homo sapiens, UniProt P06493).
T5 construct: endogenous in cells; host or cells: OCI-AML5 total protein extract
Described as above. The data set is classed as binding, H. sapiens. As to conditions: OCI-AML5 total protein extracts; DEP analysis. The method, then:
as §1, §2

In data set [8] the target is T6, OCI-AML5 total protein extracts (cyclin K, CDKs, DDB1) (Homo sapiens, UniProt Q9NYV4).
T6 construct: endogenous in cells; host or cells: OCI-AML5 total protein extract
The description is as above. The class given is binding, H. sapiens. The conditions noted are these: OCI-AML5 total protein extracts; DEP analysis. The method, then:
as §1, §2

Data set [9] deals with T7, OCI-AML5 total protein extracts (cyclin K, CDKs, DDB1) (Homo sapiens, UniProt O75909).
T7 construct: endogenous in cells; host or cells: OCI-AML5 total protein extract
Described as above. The data set is classed as binding, H. sapiens. The conditions noted are these: OCI-AML5 total protein extracts; DEP analysis. As for the experimental part:
as §1, §2

[10] abbreviates: OCI-AML5, increasing concentrations, 6 h.
Where [11] appears, read: centered abundance, competition (compe).
[12] abbreviates: probe vs probe with competition.
Where [13] appears, read: probe with competition (compe) vs UOM-005839.
Where [14] appears, read: probe with competition (compe) vs beads.

The text below walks through data of paper PMC12152147, “DDB1 engagement defines the selectivity of S656 analogs for cyclin K degradation over CDK inhibition” (EMBO Reports, 2025).

Structures are written as SMILES. “And” between values parts separate entries of the source, which are not always exact repeats. Identical values can stand only once.

T2 sequence (Q86UQ4 whole entry): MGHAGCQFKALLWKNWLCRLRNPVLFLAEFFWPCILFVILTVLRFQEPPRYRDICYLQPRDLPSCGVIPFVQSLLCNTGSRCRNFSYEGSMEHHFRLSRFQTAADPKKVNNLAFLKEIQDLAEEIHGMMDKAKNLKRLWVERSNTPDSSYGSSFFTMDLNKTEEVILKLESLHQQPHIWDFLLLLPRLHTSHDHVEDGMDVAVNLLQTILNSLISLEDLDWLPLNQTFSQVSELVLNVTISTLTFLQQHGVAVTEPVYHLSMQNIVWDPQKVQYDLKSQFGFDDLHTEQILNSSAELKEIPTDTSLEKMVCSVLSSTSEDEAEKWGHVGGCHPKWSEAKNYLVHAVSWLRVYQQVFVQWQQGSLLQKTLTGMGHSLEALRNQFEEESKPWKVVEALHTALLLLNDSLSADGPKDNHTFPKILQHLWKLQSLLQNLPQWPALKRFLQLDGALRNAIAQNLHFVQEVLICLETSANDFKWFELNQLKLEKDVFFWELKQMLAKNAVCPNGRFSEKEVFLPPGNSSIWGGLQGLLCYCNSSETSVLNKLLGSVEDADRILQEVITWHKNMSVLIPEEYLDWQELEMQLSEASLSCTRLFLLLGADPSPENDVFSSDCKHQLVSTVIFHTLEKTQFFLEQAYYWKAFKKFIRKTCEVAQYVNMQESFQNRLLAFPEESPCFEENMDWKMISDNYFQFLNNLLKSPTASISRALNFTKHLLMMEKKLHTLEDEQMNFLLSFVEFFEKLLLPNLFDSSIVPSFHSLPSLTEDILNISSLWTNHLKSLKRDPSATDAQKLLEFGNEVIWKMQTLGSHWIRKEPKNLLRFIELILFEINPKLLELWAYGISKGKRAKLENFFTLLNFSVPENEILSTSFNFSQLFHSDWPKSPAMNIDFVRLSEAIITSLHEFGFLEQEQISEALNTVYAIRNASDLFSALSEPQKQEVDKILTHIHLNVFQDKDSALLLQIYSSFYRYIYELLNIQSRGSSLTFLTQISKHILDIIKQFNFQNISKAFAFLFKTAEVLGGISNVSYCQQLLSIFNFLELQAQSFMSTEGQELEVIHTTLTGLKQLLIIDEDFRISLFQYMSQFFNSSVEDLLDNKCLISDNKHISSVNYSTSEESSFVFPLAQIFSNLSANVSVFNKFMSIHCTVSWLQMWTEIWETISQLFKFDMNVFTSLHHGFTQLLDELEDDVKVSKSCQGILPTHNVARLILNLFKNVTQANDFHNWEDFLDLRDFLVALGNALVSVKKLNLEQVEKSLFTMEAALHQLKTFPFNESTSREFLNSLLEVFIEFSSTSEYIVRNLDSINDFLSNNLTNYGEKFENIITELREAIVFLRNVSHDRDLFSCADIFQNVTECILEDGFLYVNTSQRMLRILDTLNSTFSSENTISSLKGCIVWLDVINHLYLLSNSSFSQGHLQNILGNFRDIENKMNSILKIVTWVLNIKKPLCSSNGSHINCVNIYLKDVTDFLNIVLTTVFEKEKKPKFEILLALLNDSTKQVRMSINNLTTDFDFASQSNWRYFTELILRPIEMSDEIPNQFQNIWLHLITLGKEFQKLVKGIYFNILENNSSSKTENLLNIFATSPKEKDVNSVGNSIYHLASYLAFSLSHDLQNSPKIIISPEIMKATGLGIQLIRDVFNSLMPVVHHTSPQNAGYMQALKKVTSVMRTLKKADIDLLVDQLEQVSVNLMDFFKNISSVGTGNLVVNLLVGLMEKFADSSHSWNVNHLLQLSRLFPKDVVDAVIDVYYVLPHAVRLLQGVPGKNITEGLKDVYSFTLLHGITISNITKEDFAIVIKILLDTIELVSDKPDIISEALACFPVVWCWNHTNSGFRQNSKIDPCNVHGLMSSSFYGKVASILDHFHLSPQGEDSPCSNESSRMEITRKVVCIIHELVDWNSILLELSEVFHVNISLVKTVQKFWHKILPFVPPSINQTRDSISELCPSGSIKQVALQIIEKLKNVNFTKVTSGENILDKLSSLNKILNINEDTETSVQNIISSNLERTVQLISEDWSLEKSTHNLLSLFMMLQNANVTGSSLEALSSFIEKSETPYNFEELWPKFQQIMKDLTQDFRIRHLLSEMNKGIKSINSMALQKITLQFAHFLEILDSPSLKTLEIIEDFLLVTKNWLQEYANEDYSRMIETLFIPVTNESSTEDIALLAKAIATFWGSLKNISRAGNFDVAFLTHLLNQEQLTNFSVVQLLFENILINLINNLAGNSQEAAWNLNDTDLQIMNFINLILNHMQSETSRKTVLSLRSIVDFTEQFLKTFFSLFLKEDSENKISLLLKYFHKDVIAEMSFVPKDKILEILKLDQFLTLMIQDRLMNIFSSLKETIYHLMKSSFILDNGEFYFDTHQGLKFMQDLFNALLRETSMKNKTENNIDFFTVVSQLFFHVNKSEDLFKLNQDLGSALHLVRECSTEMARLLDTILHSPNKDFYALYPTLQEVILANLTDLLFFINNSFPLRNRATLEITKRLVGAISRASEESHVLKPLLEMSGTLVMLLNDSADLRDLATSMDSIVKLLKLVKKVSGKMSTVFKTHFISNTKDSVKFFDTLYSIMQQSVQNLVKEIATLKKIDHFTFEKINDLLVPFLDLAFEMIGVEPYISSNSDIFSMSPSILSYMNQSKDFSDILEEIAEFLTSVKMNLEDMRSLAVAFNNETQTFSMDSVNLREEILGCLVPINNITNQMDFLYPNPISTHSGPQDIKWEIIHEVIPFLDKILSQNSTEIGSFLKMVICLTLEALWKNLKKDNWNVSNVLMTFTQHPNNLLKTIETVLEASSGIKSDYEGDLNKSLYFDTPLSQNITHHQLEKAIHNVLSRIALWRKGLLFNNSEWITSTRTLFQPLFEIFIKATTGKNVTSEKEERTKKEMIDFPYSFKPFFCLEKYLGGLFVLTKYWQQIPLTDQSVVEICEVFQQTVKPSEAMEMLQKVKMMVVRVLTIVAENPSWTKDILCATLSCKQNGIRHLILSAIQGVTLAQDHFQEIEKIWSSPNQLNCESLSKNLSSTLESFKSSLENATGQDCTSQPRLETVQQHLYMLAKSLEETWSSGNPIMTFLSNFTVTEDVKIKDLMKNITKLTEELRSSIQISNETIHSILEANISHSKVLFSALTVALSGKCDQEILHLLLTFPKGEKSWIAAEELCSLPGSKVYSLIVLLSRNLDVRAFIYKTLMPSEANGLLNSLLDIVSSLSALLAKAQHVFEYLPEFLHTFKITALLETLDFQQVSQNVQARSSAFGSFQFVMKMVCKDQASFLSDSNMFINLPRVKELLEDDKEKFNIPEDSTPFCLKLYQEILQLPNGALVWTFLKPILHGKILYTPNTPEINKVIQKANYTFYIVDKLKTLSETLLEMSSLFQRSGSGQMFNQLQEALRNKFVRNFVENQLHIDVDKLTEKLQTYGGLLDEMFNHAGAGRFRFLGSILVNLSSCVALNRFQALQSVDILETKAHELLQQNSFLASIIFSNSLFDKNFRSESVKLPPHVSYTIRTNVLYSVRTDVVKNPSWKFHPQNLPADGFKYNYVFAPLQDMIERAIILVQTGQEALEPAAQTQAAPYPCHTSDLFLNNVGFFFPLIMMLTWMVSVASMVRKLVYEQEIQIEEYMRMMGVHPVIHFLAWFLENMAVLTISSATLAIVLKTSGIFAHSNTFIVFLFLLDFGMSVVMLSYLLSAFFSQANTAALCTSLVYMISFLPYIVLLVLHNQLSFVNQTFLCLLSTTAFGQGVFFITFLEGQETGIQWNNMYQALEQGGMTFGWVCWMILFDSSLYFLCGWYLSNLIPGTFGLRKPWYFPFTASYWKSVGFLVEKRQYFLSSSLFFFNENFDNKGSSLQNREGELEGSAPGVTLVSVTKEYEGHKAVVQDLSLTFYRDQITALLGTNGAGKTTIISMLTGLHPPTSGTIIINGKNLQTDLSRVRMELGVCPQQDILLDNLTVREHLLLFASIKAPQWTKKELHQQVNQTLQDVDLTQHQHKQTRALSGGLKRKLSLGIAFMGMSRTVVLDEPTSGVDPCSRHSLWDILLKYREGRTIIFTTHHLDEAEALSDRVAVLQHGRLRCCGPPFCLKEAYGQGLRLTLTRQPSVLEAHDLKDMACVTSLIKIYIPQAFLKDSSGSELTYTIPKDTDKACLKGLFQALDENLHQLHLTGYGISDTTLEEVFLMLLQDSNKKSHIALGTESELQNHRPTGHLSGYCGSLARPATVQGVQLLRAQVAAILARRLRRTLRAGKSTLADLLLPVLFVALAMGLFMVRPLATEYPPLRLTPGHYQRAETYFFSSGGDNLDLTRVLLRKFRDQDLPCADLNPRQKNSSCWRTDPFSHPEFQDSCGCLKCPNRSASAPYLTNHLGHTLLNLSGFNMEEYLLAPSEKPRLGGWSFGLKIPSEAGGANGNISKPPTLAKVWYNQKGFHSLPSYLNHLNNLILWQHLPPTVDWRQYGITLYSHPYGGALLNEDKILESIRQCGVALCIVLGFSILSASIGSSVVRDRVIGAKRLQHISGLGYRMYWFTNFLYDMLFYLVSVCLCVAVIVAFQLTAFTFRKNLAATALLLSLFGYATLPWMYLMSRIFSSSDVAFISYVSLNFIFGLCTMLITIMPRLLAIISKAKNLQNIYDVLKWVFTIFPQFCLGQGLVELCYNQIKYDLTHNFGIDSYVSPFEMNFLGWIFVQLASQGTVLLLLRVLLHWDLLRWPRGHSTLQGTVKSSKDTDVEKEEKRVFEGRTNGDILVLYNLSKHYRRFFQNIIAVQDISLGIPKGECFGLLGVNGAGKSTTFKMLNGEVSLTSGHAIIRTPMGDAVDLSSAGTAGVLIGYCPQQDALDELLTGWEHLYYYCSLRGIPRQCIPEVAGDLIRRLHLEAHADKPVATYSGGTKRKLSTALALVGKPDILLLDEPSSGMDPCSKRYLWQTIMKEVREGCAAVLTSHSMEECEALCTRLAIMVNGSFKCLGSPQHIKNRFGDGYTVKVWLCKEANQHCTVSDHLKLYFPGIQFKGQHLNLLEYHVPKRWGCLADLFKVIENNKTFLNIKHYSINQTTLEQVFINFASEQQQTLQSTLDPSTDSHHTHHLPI

Regarding `Cc1cccc(Nc2nc(CC(=O)Nc3ncc(C)s3)cs2)n1` [HQ461], the “RNA polymerase II phospho-ser2 level (immunoblot)” value in data set [1] is “reduced levels of RNA polymerase II phospho-ser2”. For the same molecule, in data set [1] (setting [10]), the “cyclin K protein level (immunoblot)” value is given as “dose-dependent cyclin K depletion”.
Turning to `CN(C)c1ccc(CC(=O)Nc2ncc(SCc3cccnc3)s2)cc1` [S656], the “CDK12-DDB1 interaction in live cells (NanoLuc luminescence)” value in [2] was “efficiently induced an interaction between CDK12 and DDB1”. Also, the “cyclin K protein level (immunoblot)” value is recorded as “strong depletion of cyclin K” in data set [1] (3 primary AML specimens, 5 μM, 5 hours) and “dose-dependent cyclin K depletion” in data set [1] (setting [10]). Besides, the “Mcl-1 protein and c-MYC level (immunoblot)” value in data set [1] (OCI-AML5, 5 μM for 4 h) is “substantial depletion”. For the same molecule, the “RNA polymerase II phospho-ser2 level (immunoblot)” value in data set [1] is given as “reduced levels of RNA polymerase II phospho-ser2”.
Regarding `Cn1cc(-n2cnc3c(NCc4nc5cc(Cl)c(Cl)cc5[nH]4)nc(N4CCOCC4)nc32)cn1` [SR4835], in [3], the tolerability in animals entry was “well tolerated” and the “tumor growth in vivo” value is reported as “effectively inhibited tumor growth”.
Consider `CN(C)C/C=C/C(=O)Nc1ccc(C(=O)N2CCC[C@@H](Nc3ncc(Cl)c(-c4c[nH]c5ccccc45)n3)C2)cc1` [THZ531], for which the “CDK12-DDB1 interaction in live cells (NanoLuc luminescence)” value in data set [2] is recorded as “not detectable”.
As for `CN(CCOCCOCCN)c1ccc(CC(=O)Nc2ncc(SCc3cccnc3)s2)cc1` [UOM-005790], the UOM-005790_centered was found to be 0.56 in data set [4] (centered abundance) and 1.19 in data set [6] (centered abundance). The values for the UOM-005790compe_centered in [4] (setting [11]) and in data set [6] (setting [11]) were -0.869 and 1.42, respectively. Further, the UOM-005790_vs_Beads_ratio was 0.378 in [4] (immobilized probe vs beads) and 4.31 in [6] (immobilized probe vs beads). The UOM-005790_vs_UOM-005839_ratio stood at 0.434 in [4] (probe vs probe UOM-005839) and 0.69 in data set [6] (probe vs probe UOM-005839). The UOM-005790_vs_UOM-005790compe_ratio is reported as 1.43 in [4] (setting [12]) and -0.227 in data set [6] (setting [12]). The UOM-005790compe_vs_UOM-005839_ratio in data set [4] (setting [13]) is on record as -0.995; in [6] (setting [13]) it was 0.916. Further, the UOM-005790compe_vs_Beads_ratio is reported as -1.05 in data set [4] (setting [14]) and 4.54 in [6] (setting [14]). Moreover, in [5], the “pull-down enrichment of CDK9” value was 2.785 and 2.837 and 2.887. Besides, the “pull-down enrichment of CDK1” value in [7] was 2.811 and 2.814 and 2.979. The “pull-down enrichment of CDK12” value in data set [8] is 0.5953 and 0.6765 and 0.5336. In addition, the “pull-down enrichment of Cyclin K” value in data set [9] was 2.779 and 2.982 and 2.894.
